Test results taken from patent US20240082223A1, “DIHYDROFUROPYRIDINE DERIVATIVES AS RHO- KINASE INHIBITORS” (CHIESI FARMACEUTICI S.P.A., priority 2020, published 2024).

How the values were obtained:
Assay type in all cases: biochemical
ROCK2 [1] = target: T1, ROCK2 (Homo sapiens, UniProt O75116); assay: In vitro inhibitory activity assay ROCK2 (Method B, ADP-Glo, 200 μM ATP); details: ATP 200 μM, read-out: Method B ROCK 2 (Ki)
Experimental: (§1) In Vitro Inhibitory Activity Assay Description ROCK1 and ROCK2
(§2) The effectiveness of compounds of the present invention to inhibit Rho kinase activity can be determined in a 10 μl assay containing 40 mM Tris pH7.5, 20 mM MgCl2 0.1 mg/mL BSA, 50 μM DTT and 2.5 μM peptide substrate (Myelin Basic Protein) using an ADP-Glo kit (Promega). Compounds were dissolved in DMSO such that the final concentration of DMSO was 1% in the assay. All reactions/incubations are performed at 25° C. Compound (2 μL) and either Rho kinase 1 or 2 (4 μl) were mixed and incubated for 30 min. Reactions were initiated by addition of ATP (4 μL) such that the final concentration of ATP in the assay was 200 μM. After a 1 hour incubation 10111 of ADP-Glo Reagent was added and after a further 45 minute incubation 20 μL of Kinase Detection Buffer was added and the mixture incubated for a further 30 minutes. The luminescent signal was measured on a luminometer. […] Compounds were tested in dose-response format and the inhibition of kinase activity was calculated at each concentration of compound. To determine the IC50 (concentration of compound required to inhibit 50% of the enzyme activity) data were fit to a plot of % inhibition vs Log10 compound concentration using a sigmoidal fit with a variable slope and fixing the maximum to 100% and the minimum to 0%. To determine the Ki values the Cheng-Prusoff equation was utilized (Ki=IC50/(1[S]/Km).

PKA = PKA (Homo sapiens, UniProt P17612); assay: In vitro inhibitory activity assay for PKA (ADP-Glo), reported as selectivity ratio vs ROCK2; details: Ki PKA divided by Ki ROCK2 (method B)
Experimental: In vitro inhibitory activity assay description for PKA
The effectiveness of compounds of the present invention to inhibit PKA activity can be determined in a […], assay containing 40 mM Tris pH7.5, 20 mM MgCl2 0.1 mg/mL BSA, 50 μM DTT and 260 μM peptide substrate (kemptide) using an ADP-Glo kit (Promega). Compounds were dissolved in DMSO such that the final concentration of DMSO was 1% in the assay. All reactions/incubations are performed at 25° C. Compound and PKA enzyme (6 μl) were mixed and incubated for 30 min. Reactions were initiated by addition of ATP (4 μL) such that the final concentration of ATP in the assay was 10 μM. After a 30 minute incubation 10 μL of ADP-Glo Reagent was added and after a further 1 hour incubation 20 μL of Kinase Detection Buffer was added and the mixture incubated for a further 45 minutes. The luminescent signal was measured on a luminometer. […] Compounds were tested in dose-response format and the inhibition of kinase activity was calculated at each concentration of compound. To determine the IC50 (concentration of compound required to inhibit 50% of the enzyme activity) data were fit to a plot of % inhibition vs Log10 compound concentration using a sigmoidal fit with a variable slope and fixing the maximum to 100% and the minimum to 0%. To determine the Ki values the Cheng-Prusoff equation was utilized (Ki=IC50/(1+[S]/Km).
In vitro inhibitory activities for PKA were reported as selectivity ratio vs. ROCK2. Selectivity ratio PKA/ROCK2 was calculated by dividing the Ki value for PKA by Ki value of ROCK2 (method B) and reported into table 1.

ROCK1 [2] = target: T2, ROCK1 (Homo sapiens, UniProt Q13464); assay: In vitro inhibitory activity assay ROCK1 (Method B, ADP-Glo, 200 μM ATP); details: ATP 200 μM, read-out: Method B ROCK 1 (Ki)
T2 sequence (Q13464 whole entry): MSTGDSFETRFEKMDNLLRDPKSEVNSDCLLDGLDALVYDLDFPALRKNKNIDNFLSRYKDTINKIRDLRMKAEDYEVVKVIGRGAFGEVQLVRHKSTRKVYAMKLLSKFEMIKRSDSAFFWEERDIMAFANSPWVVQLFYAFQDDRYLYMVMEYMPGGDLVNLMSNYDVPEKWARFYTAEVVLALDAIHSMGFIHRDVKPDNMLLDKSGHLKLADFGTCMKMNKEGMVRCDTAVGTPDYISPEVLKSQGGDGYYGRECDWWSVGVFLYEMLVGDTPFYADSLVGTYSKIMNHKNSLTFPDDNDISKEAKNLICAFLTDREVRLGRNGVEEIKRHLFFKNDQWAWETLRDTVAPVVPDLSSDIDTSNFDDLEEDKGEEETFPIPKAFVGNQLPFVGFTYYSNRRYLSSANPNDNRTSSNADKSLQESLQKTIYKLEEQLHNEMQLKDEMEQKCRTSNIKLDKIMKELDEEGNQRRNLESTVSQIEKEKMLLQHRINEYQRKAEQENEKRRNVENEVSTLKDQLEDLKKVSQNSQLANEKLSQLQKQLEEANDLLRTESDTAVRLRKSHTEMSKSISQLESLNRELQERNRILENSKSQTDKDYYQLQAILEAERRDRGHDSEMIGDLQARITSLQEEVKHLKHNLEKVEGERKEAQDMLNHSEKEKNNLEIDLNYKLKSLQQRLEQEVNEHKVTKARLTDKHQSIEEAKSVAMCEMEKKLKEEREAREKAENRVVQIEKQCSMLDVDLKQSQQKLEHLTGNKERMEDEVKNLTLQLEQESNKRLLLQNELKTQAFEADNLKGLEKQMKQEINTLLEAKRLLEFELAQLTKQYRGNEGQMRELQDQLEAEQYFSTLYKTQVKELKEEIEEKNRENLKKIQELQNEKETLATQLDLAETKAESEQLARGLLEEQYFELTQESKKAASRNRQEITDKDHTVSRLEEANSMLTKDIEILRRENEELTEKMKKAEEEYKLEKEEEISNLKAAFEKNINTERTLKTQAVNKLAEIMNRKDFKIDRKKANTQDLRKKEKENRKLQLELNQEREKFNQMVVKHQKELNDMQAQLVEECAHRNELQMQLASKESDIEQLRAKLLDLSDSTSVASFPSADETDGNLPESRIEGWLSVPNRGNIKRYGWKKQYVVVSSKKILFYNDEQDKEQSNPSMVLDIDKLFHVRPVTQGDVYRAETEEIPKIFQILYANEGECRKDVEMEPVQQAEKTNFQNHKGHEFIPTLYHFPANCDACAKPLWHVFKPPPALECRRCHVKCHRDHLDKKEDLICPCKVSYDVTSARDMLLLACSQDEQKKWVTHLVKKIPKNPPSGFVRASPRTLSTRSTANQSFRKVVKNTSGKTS
Experimental: as §1, §2

ROCK2 [3] = target: T1, ROCK2; assay: In vitro inhibitory activity assay ROCK2 (Method A, ADP-Glo, 10 μM ATP); details: ATP 10 μM, read-out: Method A ROCK 2 (Ki)
Experimental: (§3) In vitro inhibitory activity assay description ROCK1 and ROCK2
as §2, with “(2 uL)” for “(2 μL)”, “was 10” for “was 200”, “incubation […]” for “incubation 10111”, “45 minutes” for “45 minute”, “20 uL” for “20 μL”, “utilized (Ki=IC50/(1+[S]/Km).” for “utilized (Ki=IC50/(1[S]/Km).”

ROCK1 [4] = target: T2, ROCK1; assay: In vitro inhibitory activity assay ROCK1 (Method A, ADP-Glo, 10 μM ATP); details: ATP 10 μM, read-out: Method A ROCK 1 (Ki)
Experimental: as §3
as §2, with “(2 uL)” for “(2 μL)”, “was 10” for “was 200”, “incubation […]” for “incubation 10111”, “45 minutes” for “45 minute”, “20 uL” for “20 μL”, “utilized (Ki=IC50/(1+[S]/Km).” for “utilized (Ki=IC50/(1[S]/Km).”

T1 sequence (O75116 whole entry): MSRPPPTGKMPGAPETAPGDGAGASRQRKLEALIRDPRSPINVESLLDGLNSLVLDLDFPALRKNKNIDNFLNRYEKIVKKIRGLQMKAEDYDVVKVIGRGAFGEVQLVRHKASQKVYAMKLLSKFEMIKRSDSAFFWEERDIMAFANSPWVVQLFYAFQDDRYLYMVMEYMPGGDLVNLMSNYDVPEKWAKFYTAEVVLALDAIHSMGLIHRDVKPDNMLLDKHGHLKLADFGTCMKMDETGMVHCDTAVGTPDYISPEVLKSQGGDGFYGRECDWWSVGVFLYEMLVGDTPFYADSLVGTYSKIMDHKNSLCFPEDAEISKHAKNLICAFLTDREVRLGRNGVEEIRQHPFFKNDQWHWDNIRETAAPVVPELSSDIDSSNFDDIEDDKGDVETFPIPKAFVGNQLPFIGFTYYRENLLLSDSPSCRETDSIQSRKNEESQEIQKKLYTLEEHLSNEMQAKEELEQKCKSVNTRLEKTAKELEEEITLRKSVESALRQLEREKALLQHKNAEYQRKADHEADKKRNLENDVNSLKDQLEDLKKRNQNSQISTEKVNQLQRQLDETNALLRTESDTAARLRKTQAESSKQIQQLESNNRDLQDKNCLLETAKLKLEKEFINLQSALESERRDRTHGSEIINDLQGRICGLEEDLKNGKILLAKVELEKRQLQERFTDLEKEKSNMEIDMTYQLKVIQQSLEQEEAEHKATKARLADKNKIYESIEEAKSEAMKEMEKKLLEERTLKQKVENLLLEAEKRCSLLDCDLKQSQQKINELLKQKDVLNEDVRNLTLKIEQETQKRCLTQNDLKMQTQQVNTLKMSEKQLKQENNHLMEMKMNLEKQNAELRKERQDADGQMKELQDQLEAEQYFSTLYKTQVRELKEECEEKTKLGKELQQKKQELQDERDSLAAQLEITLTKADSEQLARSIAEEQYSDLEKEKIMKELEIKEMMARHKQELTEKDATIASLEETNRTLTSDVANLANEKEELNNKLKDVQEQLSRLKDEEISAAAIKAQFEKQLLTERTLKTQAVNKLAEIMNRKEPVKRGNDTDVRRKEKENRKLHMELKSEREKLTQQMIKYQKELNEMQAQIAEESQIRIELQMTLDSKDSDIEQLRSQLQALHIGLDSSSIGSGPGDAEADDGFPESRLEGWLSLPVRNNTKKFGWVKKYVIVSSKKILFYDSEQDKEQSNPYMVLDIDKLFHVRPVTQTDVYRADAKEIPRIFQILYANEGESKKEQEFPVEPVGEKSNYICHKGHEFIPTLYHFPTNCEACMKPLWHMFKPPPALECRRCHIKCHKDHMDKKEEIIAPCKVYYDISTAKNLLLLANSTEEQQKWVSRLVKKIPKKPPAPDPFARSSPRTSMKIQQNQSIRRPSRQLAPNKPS

Ki (ROCK2 [1]) | Ratio Ki PKA/ROCK2 (PKA) | Ki (ROCK1 [2]) | Ki (ROCK2 [3]) | Ki (ROCK1 [4]) | Compound
3 to 30 nM | *** (ratio≥10) | 3 to 30 nM | – | – | O=C(NC1CC(F)(F)C1)c1cccc(CNc2ncc(-c3cn[nH]c3)c3c2CCO3)c1 [Example 12, 3-(((7-(1H-pyrazol-4-yl)-2,3-dihydrofuro[3,2-c]pyridin-4-yl)amino)methyl)-N-(3,3-difluorocyclobutyl)benzamide]
≤ 3 nM | *** (ratio≥10) | ≤ 3 nM | – | – | O=C(Nc1ccncn1)c1cccc(CNc2ncc(-c3cn[nH]c3)c3c2CCO3)c1 [Example 32, 3-(((7-(1H-pyrazol-4-yl)-2,3-dihydrofuro[3,2-c]pyridin-4-yl)amino)methyl)-N-(pyrimidin-4-yl)benzamide]
≤ 3 nM | *** (ratio≥10) | ≤ 3 nM | ≤ 3 nM | ≤ 3 nM | O=C(NCCC1CCN(C2COC2)CC1)c1cccc(CNc2ncc(-c3cn[nH]c3)c3c2CCO3)c1 [Example 28, 3-(((7-(1H-pyrazol-4-yl)-2,3-dihydrofuro[3,2-c]pyridin-4-yl)amino)methyl)-N-(2-(1-(oxetan-3-yl)piperidin-4-yl)ethyl)benzamide]
≤ 3 nM | *** (ratio≥10) | ≤ 3 nM | – | – | O=C(NCC1CCCCO1)c1cccc(CNc2ncc(-c3cn[nH]c3)c3c2CCO3)c1 (single isomer, unassigned; enantiomer 2) [Example 56, 3-(((7-(1H-pyrazol-4-yl)-2,3-dihydrofuro[3,2-c]pyridin-4-yl)amino)methyl)-N-((tetrahydro-2H-pyran-2-yl)methyl)benzamide (Enantiomer 2)]
≤ 3 nM | *** (ratio≥10) | ≤ 3 nM | – | – | O=C(NCC1CCCCO1)c1cccc(CNc2ncc(-c3cn[nH]c3)c3c2CCO3)c1 (single isomer, unassigned; enantiomer 1) [Example 55, 3-(((7-(1H-pyrazol-4-yl)-2,3-dihydrofuro[3,2-c]pyridin-4-yl)amino)methyl)-N-((tetrahydro-2H-pyran-2-yl)methyl)benzamide (Enantiomer 1)]
≤ 3 nM | *** (ratio≥10) | ≤ 3 nM | – | – | COc1ccc(NC(=O)c2cccc(CNc3ncc(-c4cn[nH]c4)c4c3CCO4)c2)nc1 [Example 31, 3-(((7-(1H-Pyrazol-4-yl)-2,3-dihydrofuro[3,2-c]pyridin-4-yl)amino)methyl)-N-(5-methoxypyridin-2-yl)benzamide]
≤ 3 nM | – | ≤ 3 nM | ≤ 3 nM | ≤ 3 nM | O=C(Nc1cccc(CNc2ncc(-c3cn[nH]c3)c3c2CCO3)c1)c1ncc(CN2CCCC2)s1 [Example 48, N-(3-(((7-(1H-pyrazol-4-yl)-2,3-dihydrofuro[3,2-c]pyridin-4-yl)amino)methyl)phenyl)-5-(pyrrolidin-1-ylmethyl)thiazole-2-carboxamide]
> 30 nM | * (ratio≤5) | > 30 nM | – | – | c1ccc(CNc2ncc(-c3cn[nH]c3)c3c2CCO3)cc1 [Example C, N-Benzyl-7-(1H-pyrazol-4-yl)-2,3-dihydrofuro[3,2-c]pyridin-4-amine, reference compound]
≤ 3 nM | *** (ratio≥10) | ≤ 3 nM | – | – | CN(C)CCOc1ccc(NC(=O)c2cccc(CNc3ncc(-c4cn[nH]c4)c4c3CCO4)c2)nc1 [Example 57, 3-(((7-(1H-pyrazol-4-yl)-2,3-dihydrofuro[3,2-c]pyridin-4-yl)amino)methyl)-N-(5-(2-(dimethylamino)ethoxy)pyridin-2-yl)benzamide]
≤ 3 nM | – | ≤ 3 nM | ≤ 3 nM | ≤ 3 nM | O=C(Nc1cccc(CNc2ncc(-c3cn[nH]c3)c3c2CCO3)c1)c1ccc2c(cnn2CCN2CCOCC2)c1 [Example 46, N-(3-(((7-(1H-pyrazol-4-yl)-2,3-dihydrofuro[3,2-c]pyridin-4-yl)amino)methyl)phenyl)-1-(2-morpholinoethyl)-1H-indazole-5-carboxamide]

The next lines start with the molecule.

Compound | Ki (ROCK2 [1]) | Ratio Ki PKA/ROCK2 (PKA) | Ki (ROCK1 [2]) | Ki (ROCK2 [3]) | Ki (ROCK1 [4])
O=C(NCCCF)c1cccc(CNc2ncc(-c3cn[nH]c3)c3c2CCO3)c1 [Example 3, 3-(((7-(1H-pyrazol-4-yl)-2,3-dihydrofuro[3,2-c]pyridin-4-yl)amino)methyl)-N-(3-fluoropropyl)benzamide] | 3 to 30 nM | *** (ratio≥10) | 3 to 30 nM | – | –
CC1(C)CC(NC(=O)c2cccc(CNc3ncc(-c4cn[nH]c4)c4c3CCO4)c2)CO1 (stereo not shown) [Example 6, 3-(((7-(1H-pyrazol-4-yl)-2,3-dihydrofuro[3,2-c]pyridin-4-yl)amino)methyl)-N-(5,5-dimethyltetrahydrofuran-3-yl)benzamide] | 3 to 30 nM | *** (ratio≥10) | 3 to 30 nM | – | –
O=C(NC1CCN(C2CC2)CC1)c1cccc(CNc2ncc(-c3cn[nH]c3)c3c2CCO3)c1 [Example 1, 3-(((7-(1H-Pyrazol-4-yl)-2,3-dihydrofuro[3,2-c]pyridin-4-yl)amino)methyl)-N-(1-cyclopropylpiperidin-4-yl)benzamide] | ≤ 3 nM | *** (ratio≥10) | ≤ 3 nM | – | –
O=C(NCC1CC1)c1cccc(CNc2ncc(-c3cn[nH]c3)c3c2CCO3)c1 [Example 5, 3-(((7-(1H-pyrazol-4-yl)-2,3-dihydrofuro[3,2-c]pyridin-4-yl)amino)methyl)-N-(cyclopropylmethyl)benzamide] | 3 to 30 nM | *** (ratio≥10) | 3 to 30 nM | – | –
Cn1cnc(CNC(=O)c2cccc(CNc3ncc(-c4cn[nH]c4)c4c3CCO4)c2)c1 [Example 8, 3-(((7-(1H-pyrazol-4-yl)-2,3-dihydrofuro[3,2-c]pyridin-4-yl)amino)methyl)-N-((1-methyl-1H-imidazol-4-yl)methyl)benzamide] | ≤ 3 nM | *** (ratio≥10) | 3 to 30 nM | – | –
O=C(NCc1cnon1)c1cccc(CNc2ncc(-c3cn[nH]c3)c3c2CCO3)c1 [Example 10, N-((1,2,5-oxadiazol-3-yl)methyl)-3-(((7-(1H-pyrazol-4-yl)-2,3-dihydrofuro[3,2-c]pyridin-4-yl)amino)methyl)benzamide] | ≤ 3 nM | *** (ratio≥10) | ≤ 3 nM | – | –
O=C(NCC1CCCCO1)c1cccc(CNc2ncc(-c3cn[nH]c3)c3c2CCO3)c1 (racemic) [Example 11, 3-(((7-(1H-pyrazol-4-yl)-2,3-dihydrofuro[3,2-c]pyridin-4-yl)amino)methyl)-N-((tetrahydro-2H-pyran-2-yl)methyl)benzamide] | ≤ 3 nM | *** (ratio≥10) | ≤ 3 nM | – | –
